Positions of bridges follow the written chain, without caps; N, C: chain ends. Residues, ends and D or L forms follow the SMILES beside them.
What was measured:
pepsin = pepsin (Sus scrofa, UniProt P00791); assay: Pepsin digestion resistance in simulated gastric fluid, RP-HPLC; format: in vitro ADME, porcine; design: purchased Sigma Aldrich P7012; conditions: 500 U/ml pepsin in SGF pH 1.05, 30 minutes at 37.5° C.; HPLC peak vs untreated peptide
Procedure: Peptides were first suspended in 500 ul of ddH2O to a stock concentration of 2 mg/ml. Reactions were prepared by adding 12.5 ug of peptide from the stock solution to a 10 mM solution of DTT in PBS and allowed to incubate at room temperature for 30 minutes. Other reactions were prepared with 12.5 μg peptide with or without 500 U/ml pepsin in simulated gastric fluid (SGF; pH 1.05; […] sodium chloride in 0.7% (v/v) hydrochloric acid) and were incubated for 30 minutes at 37.5° C. Some reactions were quenched with a final concentration of 100 mM Tris base and 10 mM dithiothreitol (DTT). Some reactions were performed in all of the above components, including simulated gastric fluid, pepsin, Tris, and DTT (referred to as SPTD). Reversed phase HPLC (RP-HPLC) was run on samples using an Agilent 1260 HPLC equipped with a C-18 Poroshell 120B column. Sample were analyzed by a gradient method with a mobile phase of Solvent A (water with 0.1% TFA) and Solvent B (acetonitrile with 0.1% TFA). Solvent B was ramped up from 5%-45% of the mobile phase over a period of 10 minutes. Peptides were detected at an absorbance of 214 nm and 280 nm.
(§1) Peptides were first suspended in 500 μl of ddH2O to a stock concentration of 2 mg/ml. Reactions were prepared by adding 12.5 μg of peptide from the stock solution to a 10 mM solution of DTT in PBS and allowed to incubate at room temperature for 30 minutes. Other reactions were prepared with 12.5 μg peptide and 500 U/ml trypsin in 25 mM Tris/75 mM NaCl buffer (pH 7.0) and incubated for 30 minutes at 37.5° C. These reactions were then quenched with 5 μg of soybean trypsin inhibitor (I) and, in some cases, 10 mM dithiothreitol (DTT). Reversed phase HPLC (RP-HPLC) was run on samples using an Agilent 1260 HPLC equipped with a C-18 Poroshell 120B column. Sample were analyzed by a gradient method with a mobile phase of Solvent A (water with 0.1% TFA) and Solvent B (acetonitrile with 0.1% TFA). Solvent B was ramped up from 5%-45% of the mobile phase over a period of 10 minutes. For testing pepsin digestion resistance, reactions were prepared with 12.5 μg peptide with or without 500 U/ml pepsin in simulated gastric fluid (SGF; pH 1.05; […] sodium chloride in 0.7% (v/v) hydrochloric acid) and were incubated for 30 minutes at 37.5° C. For testing temperature resistance, peptides were incubated at 70° C., 75° C., or 100° C. for one hour in 0.5 mM PBS, pelleted, and then the supernatant was analyzed by HPLC.
(§2) This example illustrates peptide stability in biological conditions including in the presence of reducing agents, proteases, oxidative conditions, acidic conditions, and simulated gastric fluids. […] Various peptides were suspended in 500 μl of ddH2O at a stock concentration of 2 mg/ml. This was then diluted in accord with the reaction conditions to prevent adverse buffering effects. Reactions were prepared with 12.5 μg peptide dissolved in solution and, in some samples, additionally suspended in a 10 mM solution of DTT, simulated gastric fluid (pH 1.05; […] sodium chloride in 0.7% (v/v) hydrochloric acid), 500 U pepsin (5000 U/ml pepsin), 50 U trypsin (500 U/ml trypsin) with 1 mg/ml inhibitor in PBS, or a combination of any of these conditions. All protease reactions were incubated for 30 min at room temperature and then quenched. Pepsin reactions were quenched by adding Tris base to a final concentration of 0.075 M. Trypsin reactions were quenched by adding excess soybean trypsin inhibitor. RP-HPLC was then run on samples using an Agilent 1260 HPLC equipped with a C-18 Poroshell 120B column. Sample were analyzed by a gradient method with a mobile phase of Solvent A (water with 0.1% TFA) and Solvent B (acetonitrile with 0.1% TFA). Solvent B was ramped up from 5%-45% of the mobile phase over a period of 10 minutes.
FIG. 20 illustrates high performance liquid chromatograph (HPLC) traces of peptides after pepsin digestion. […]

trypsin = trypsin (Sus scrofa, UniProt P00761); assay: Trypsin digestion resistance of soluble peptide, RP-HPLC; format: in vitro ADME, porcine; design: purchased Sigma Aldrich 6567; conditions: 500 U/ml trypsin, 30 minutes at 37.5° C.; HPLC peak vs untreated peptide
Procedure: as §1, §2
Soluble peptides were exposed to 500 U/mL porcine trypsin and analyzed by HPLC. Protease resistance was also assessed by using SDPR-displaying peptides. The SDPR vector is similar to the a surface display GFP FasL(SDGF) vector, but contains a C-terminal 6×His tag (SEQ ID NO: 180) and all basic or aromatic amino acid residues on the stalk removed. Protease resistance is then tested by incubation of cells displaying peptides with trypsin or chymotrypsin, followed by incubation in 10 mM DTT, and staining with an anti-6×His fluorophore-labeled antibody (“6×His” disclosed as SEQ ID NO: 180). If peptides are uncleaved, they retain the His tag and are stained with by the antibody. A control protease-sensitive knottin peptide (SK) was used as a positive control. Cells displaying peptides were treated with up to 40 μg/ml trypsin or chymotrypsin.
FIG. 21 illustrates high performance liquid chromatograph (HPLC) traces of peptides after trypsin digestion. […] The assay was carried out by reconstituting 1 mg porcine trypsin (Sigma Aldrich 6567) in 1 mL of 1 mM HCl. Trypsin was provided at a concentration of 10,000 u/mL and thus, 5 μl of stock solution was equivalent to using 50 U of trypsin in each reaction. Soybean trypsin inhibitor (SA T9128) was prepared at 1 mg/mL of in H2O. […]

Sequence of trypsin (P00761 9-231): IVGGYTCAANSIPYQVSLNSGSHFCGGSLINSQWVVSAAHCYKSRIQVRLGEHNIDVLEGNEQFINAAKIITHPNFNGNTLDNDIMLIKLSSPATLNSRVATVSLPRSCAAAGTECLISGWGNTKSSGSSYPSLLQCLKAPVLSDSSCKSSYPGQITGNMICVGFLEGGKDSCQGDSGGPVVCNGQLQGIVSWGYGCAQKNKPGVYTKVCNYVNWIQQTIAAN
Sequence of pepsin (P00791 60-385): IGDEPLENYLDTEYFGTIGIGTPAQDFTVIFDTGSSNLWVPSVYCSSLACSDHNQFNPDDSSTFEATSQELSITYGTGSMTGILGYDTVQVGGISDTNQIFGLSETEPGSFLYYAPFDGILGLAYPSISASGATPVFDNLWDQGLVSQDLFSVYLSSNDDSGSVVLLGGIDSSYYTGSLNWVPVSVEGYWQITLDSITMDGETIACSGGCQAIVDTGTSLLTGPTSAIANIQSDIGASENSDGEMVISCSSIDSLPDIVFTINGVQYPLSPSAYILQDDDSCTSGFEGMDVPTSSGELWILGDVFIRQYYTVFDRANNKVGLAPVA

SMILES	Resistance to Pepsin (500 U/ml) (pepsin)	Resistance to Trypsin (500 U/ml) (trypsin)
CC[C@H](C)[C@H](NC(=O)CNC(=O)[C@@H](NC(=O)[C@H](CO)NC(=O)[C@@H](NC(=O)[C@H](CO)NC(=O)CN)[C@@H](C)CC)[C@@H](C)CC)C(=O)N[C@@H](CCCCN)C(=O)N[C@H]1CSSC[C@@H]2NC(=O)[C@H](Cc3ccc(O)cc3)NC(=O)CNC(=O)[C@H]([C@@H](C)O)NC(=O)[C@H](Cc3ccccc3)NC(=O)[C@H](Cc3ccc(O)cc3)NC(=O)[C@H](CCCCN)NC(=O)[C@H](CCCNC(=N)N)NC(=O)[C@H]([C@@H](C)CC)NC(=O)[C@H](CCCNC(=N)N)NC(=O)[C@@H]3CSSC[C@@H](C(=O)N[C@@H](CO)C(=O)NCC(=O)O)NC(=O)[C@H](Cc4c[nH]cn4)NC(=O)[C@H](CSSC[C@H](NC(=O)[C@H](CC(C)C)NC(=O)[C@H](CC(=O)O)NC(=O)[C@H]([C@@H](C)CC)NC(=O)[C@H](CO)NC(=O)[C@@H]4CCCN4C(=O)[C@H](CO)NC1=O)C(=O)N[C@@H](CCC(=O)O)C(=O)NCC(=O)N[C@@H](CCC(N)=O)C(=O)N3)NC(=O)[C@H]([C@@H](C)O)NC(=O)[C@H](CC(=O)O)NC(=O)CNC(=O)[C@H](CO)NC2=O [compound 3] (H-GSISIGIKCSPSIDLCEGQCRIRKYFTGYCSGDTCHCSG-OH; disulfide 9-30, 16-35, 20-37)	Moderate (A peptide classified as medium indicates that about half (between 25% and 75%) of the HPLC peak of the treated peptide disappeared as compared to the HPLC peak of the untreated peptide)	Low (A peptide classified as low indicates that the majority (over 75%) of the HPLC peak of the treated peptide disappeared as compared to the HPLC peak of the untreated peptide)
CC[C@H](C)[C@@H]1NC(=O)[C@@H]2CSSC[C@H](NC(=O)[C@H](C)NC(=O)CNC(=O)[C@H](CCC(=O)O)NC(=O)[C@@H](NC(=O)[C@H](CCCCN)NC(=O)[C@H](Cc3ccccc3)NC(=O)[C@H](CC(N)=O)NC(=O)[C@H](CO)NC(=O)CN)C(C)C)C(=O)N[C@@H](CO)C(=O)N[C@@H](CCCCN)C(=O)N3CCC[C@H]3C(=O)N[C@H]3CSSC[C@H](NC(=O)[C@H](CCCNC(=N)N)NC(=O)CNC(=O)[C@H](CC(N)=O)NC1=O)C(=O)N[C@@H](Cc1c[nH]cn1)C(=O)N[C@H](C(=O)N[C@@H](Cc1ccc(O)cc1)C(=O)N[C@@H](Cc1ccc(O)cc1)C(=O)O)CSSC[C@H](NC(=O)[C@H](Cc1ccc(O)cc1)NC(=O)[C@H](CCCCN)NC(=O)[C@H](CCCNC(=N)N)NC3=O)C(=O)N[C@@H]([C@@H](C)CC)C(=O)N[C@@H](CC(=O)O)C(=O)N[C@@H](CCCCN)C(=O)NCC(=O)N[C@@H](C)C(=O)N[C@@H](CCCNC(=N)N)C(=O)N[C@@H](CC(N)=O)C(=O)NCC(=O)N[C@@H](CCCCN)C(=O)N2 [compound 5] (H-GSNFKVEGACSKPCRKYCIDKGARNGKCINGRCHCYY-OH; disulfide 10-28, 14-33, 18-35)	Moderate (A peptide classified as medium indicates that about half (between 25% and 75%) of the HPLC peak of the treated peptide disappeared as compared to the HPLC peak of the untreated peptide)	Moderate (A peptide classified as medium indicates that about half (between 25% and 75%) of the HPLC peak of the treated peptide disappeared as compared to the HPLC peak of the untreated peptide)
CC[C@H](C)[C@@H]1NC(=O)[C@H](CCCNC(=N)N)NC(=O)[C@H]([C@@H](C)CC)NC(=O)[C@@H]2CSSC[C@@H](C(=O)N[C@@H](Cc3ccc(O)cc3)C(=O)N3CCC[C@H]3C(=O)O)NC(=O)[C@H](Cc3ccc(O)cc3)NC(=O)[C@@H]3CSSC[C@H](NC(=O)[C@H](CCC(=O)O)NC(=O)[C@H](CO)NC(=O)[C@H](CO)NC(=O)[C@H](CC(N)=O)NC(=O)[C@H](CC(N)=O)NC(=O)[C@@H](NC(=O)[C@H](CCCNC(=N)N)NC(=O)[C@H](CC(N)=O)NC(=O)[C@H](CO)NC(=O)[C@H](CC(C)C)NC(=O)[C@@H](NC(=O)[C@H](CCCCN)NC(=O)[C@H](CCC(N)=O)NC(=O)[C@H](CO)NC(=O)CN)[C@@H](C)CC)CSSC[C@H](NC(=O)[C@H](CCCCN)NC(=O)[C@H](C)NC(=O)[C@H](C)NC(=O)[C@H](CCCNC(=N)N)NC(=O)[C@H]([C@@H](C)O)NC(=O)CNC(=O)[C@H](Cc4ccccc4)NC1=O)C(=O)N[C@@H]([C@@H](C)CC)C(=O)N[C@@H](CC(N)=O)C(=O)N[C@@H](CCCNC(=N)N)C(=O)N[C@@H](CCCCN)C(=O)N3)C(=O)N[C@@H]([C@@H](C)CC)C(=O)N1CCC[C@H]1C(=O)N[C@@H](Cc1c[nH]cn1)C(=O)N2 [compound 6] (H-GSQKILSNRCNNSSECIPHCIRIFGTRAAKCINRKCYCYP-OH; disulfide 10-31, 16-36, 20-38)	High (A peptide classified as high indicates that the majority (at least 75%) of the HPLC peak of the treated peptide is still present as compared to the HPLC peak of the untreated peptide)	High (A peptide classified as high indicates that the majority (at least 75%) of the HPLC peak of the treated peptide is still present as compared to the HPLC peak of the untreated peptide)
CC[C@H](C)[C@@H]1NC(=O)[C@@H]2CSSC[C@H](NC(=O)[C@@H](NC(=O)[C@H](C)NC(=O)[C@H](CO)NC(=O)CN)C(C)C)C(=O)N[C@@H](CC(N)=O)C(=O)N[C@@H](CC(C)C)C(=O)N[C@@H](CCCCN)C(=O)N[C@@H](CCCNC(=N)N)C(=O)N[C@H]3CSSC[C@H](NC(=O)[C@H](CCCCN)NC(=O)[C@H](CC(=O)O)NC(=O)CNC1=O)C(=O)N[C@@H](CCC(=O)O)C(=O)N[C@H](C(=O)N[C@H](C(=O)N[C@@H](CCCCN)C(=O)N[C@@H](Cc1c[nH]cn1)C(=O)NCC(=O)O)C(C)C)CSSC[C@H](NC(=O)[C@H](CO)NC(=O)[C@H](CC(C)C)NC(=O)[C@H](CCC(N)=O)NC3=O)C(=O)N[C@@H](CCCNC(=N)N)C(=O)N[C@@H](CO)C(=O)N[C@@H](CC(C)C)C(=O)NCC(=O)N[C@@H](CC(C)C)C(=O)N[C@@H](CC(C)C)C(=O)NCC(=O)N[C@@H](CCCCN)C(=O)N2 [compound 8] (H-GSAVCNLKRCQLSCRSLGLLGKCIGDKCECVKHG-OH; disulfide 5-23, 10-28, 14-30)	High (A peptide classified as high indicates that the majority (at least 75%) of the HPLC peak of the treated peptide is still present as compared to the HPLC peak of the untreated peptide)	Low (A peptide classified as low indicates that the majority (over 75%) of the HPLC peak of the treated peptide disappeared as compared to the HPLC peak of the untreated peptide)

Source: US20190375786A1, “STABLE PEPTIDES AND METHODS OF USE THEREOF” (Fred Hutchinson Cancer Research Center, priority 2016, published 2019)
